{
  "source": "ChEMBL document CHEMBL1201862",
  "about": "“PubChem BioAssay data set” (2004)",
  "experiment_in_all_cases": "NCI tumour cell line growth inhibition, 48 h",
  "key": {"786-0": {"test_system": "786-0"}, "A498": {"test_system": "A498"}, "A549": {"test_system": "A549"}, "ACHN": {"test_system": "ACHN"}, "CCRF-CEM": {"test_system": "CCRF-CEM"}, "COLO 205": {"test_system": "COLO 205"}, "DLD-1": {"test_system": "DLD-1"}, "DMS-114": {"test_system": "DMS-114"}, "DMS-273": {"test_system": "DMS-273"}, "EKVX": {"test_system": "EKVX"}, "HCT-116": {"test_system": "HCT-116"}, "HCT-15": {"test_system": "HCT-15"}, "HL-60": {"test_system": "HL-60"}, "HOP-18": {"test_system": "HOP-18"}, "HOP-62": {"test_system": "HOP-62"}, "HT-29": {"test_system": "HT-29"}, "IGROV-1": {"test_system": "IGROV-1"}, "K562": {"test_system": "K562"}, "KM-20L2": {"test_system": "KM-20L2"}, "KM12": {"test_system": "KM12"}, "LOX IMVI": {"test_system": "LOX IMVI"}, "LXFL 529": {"test_system": "LXFL 529"}, "M14": {"test_system": "M14"}, "M19-MEL": {"test_system": "M19-MEL"}, "MOLT-4": {"test_system": "MOLT-4"}, "Malme-3M": {"test_system": "Malme-3M"}, "NCI-H23": {"test_system": "NCI-H23"}, "NCI-H460": {"test_system": "NCI-H460"}, "NCI-H522": {"test_system": "NCI-H522"}, "OVCAR-3": {"test_system": "OVCAR-3"}, "OVCAR-4": {"test_system": "OVCAR-4"}, "OVCAR-5": {"test_system": "OVCAR-5"}, "OVCAR-8": {"test_system": "OVCAR-8"}, "RPMI-8226": {"test_system": "RPMI-8226"}, "RXF 393": {"test_system": "RXF 393"}, "SF-268": {"test_system": "SF-268"}, "SF-295": {"test_system": "SF-295"}, "SF-539": {"test_system": "SF-539"}, "SK-MEL-28": {"test_system": "SK-MEL-28"}, "SK-MEL-2": {"test_system": "SK-MEL-2"}, "SK-MEL-5": {"test_system": "SK-MEL-5"}, "SK-OV-3": {"test_system": "SK-OV-3"}, "SN12C": {"test_system": "SN12C"}, "SNB-19": {"test_system": "SNB-19"}, "SNB-75": {"test_system": "SNB-75"}, "SNB-78": {"test_system": "SNB-78"}, "SR": {"test_system": "SR"}, "SW-620": {"test_system": "SW-620"}, "TK-10": {"test_system": "TK-10"}, "U-251": {"test_system": "U-251"}, "UACC-257": {"test_system": "UACC-257"}, "UACC-62": {"test_system": "UACC-62"}, "UO-31": {"test_system": "UO-31"}},
  "note": "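Protocol summary: plate cells (96-well), add compound at 5 concentrations, incubate 48 h, interpolate endpoints linearly. GI50: concentration for 50% inhibition of growth.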 Activity calls are given as the source filed them. Rule as the data show it: active = GI50 up to about 1.1 µM and inactive = higher.",
  "data": [
    {"smiles": "CN(C)CC/C(=N\\Nc1c(F)c(F)c(F)c(F)c1F)c1ccccc1", "values": [
      {"measurement": "GI50", "setting": "786-0", "value": "82.4 µM (inactive)"},
      {"measurement": "GI50", "setting": "A498", "value": "74.5 µM (inactive)"},
      {"measurement": "GI50", "setting": "A549", "value": "31.6 µM (inactive)"},
      {"measurement": "GI50", "setting": "ACHN", "value": "30.9 µM (inactive)"},
      {"measurement": "GI50", "setting": "CCRF-CEM", "value": "21.2 µM (inactive)"},
      {"measurement": "GI50", "setting": "COLO 205", "value": "> 100 µM (inactive)"},
      {"measurement": "GI50", "setting": "DLD-1", "value": "8.63 µM (inactive)"},
      {"measurement": "GI50", "setting": "DMS-114", "value": "25.5 µM (inactive)"},
      {"measurement": "GI50", "setting": "DMS-273", "value": "29.2 µM (inactive)"},
      {"measurement": "GI50", "setting": "EKVX", "value": "> 100 µM (inactive)"},
      {"measurement": "GI50", "setting": "HCT-116", "value": "86.9 µM (inactive)"},
      {"measurement": "GI50", "setting": "HCT-15", "value": 35.3, "unit": "µM"},
      {"measurement": "GI50", "setting": "HL-60", "value": "9.68 µM (inactive)"},
      {"measurement": "GI50", "setting": "HOP-18", "value": "23.6 µM (inactive)"},
      {"measurement": "GI50", "setting": "HOP-62", "value": "> 10 µM (inactive)"},
      {"measurement": "GI50", "setting": "HT-29", "value": "35.8 µM (inactive)"},
      {"measurement": "GI50", "setting": "IGROV-1", "value": "22.2 µM (inactive)"},
      {"measurement": "GI50", "setting": "K562", "value": "20.4 µM (inactive)"},
      {"measurement": "GI50", "setting": "KM-20L2", "value": "35.6 µM (inactive)"},
      {"measurement": "GI50", "setting": "KM12", "value": "48.5 µM (inactive)"},
      {"measurement": "GI50", "setting": "LOX IMVI", "value": "32.7 µM (inactive)"},
      {"measurement": "GI50", "setting": "LXFL 529", "value": "42.3 µM (inactive)"},
      {"measurement": "GI50", "setting": "M14", "value": "> 10 µM (inactive)"},
      {"measurement": "GI50", "setting": "M19-MEL", "value": "70.1 µM (inactive)"},
      {"measurement": "GI50", "setting": "MOLT-4", "value": "19.2 µM (inactive)"},
      {"measurement": "GI50", "setting": "Malme-3M", "value": "36.9 µM (inactive)"},
      {"measurement": "GI50", "setting": "NCI-H23", "value": "77.1 µM (inactive)"},
      {"measurement": "GI50", "setting": "NCI-H460", "value": "28 µM (inactive)"},
      {"measurement": "GI50", "setting": "NCI-H522", "value": "14.3 µM (inactive)"},
      {"measurement": "GI50", "setting": "OVCAR-3", "value": "> 10 µM (inactive)"},
      {"measurement": "GI50", "setting": "OVCAR-4", "value": "16.9 µM (inactive)"},
      {"measurement": "GI50", "setting": "OVCAR-5", "value": "49.9 µM (inactive)"},
      {"measurement": "GI50", "setting": "OVCAR-8", "value": "93.3 µM (inactive)"},
      {"measurement": "GI50", "setting": "RPMI-8226", "value": "19 µM (inactive)"},
      {"measurement": "GI50", "setting": "RXF 393", "value": "22 µM (inactive)"},
      {"measurement": "GI50", "setting": "SF-268", "value": "90.4 µM (inactive)"},
      {"measurement": "GI50", "setting": "SF-295", "value": "38.5 µM (inactive)"},
      {"measurement": "GI50", "setting": "SF-539", "value": "40.2 µM (inactive)"},
      {"measurement": "GI50", "setting": "SK-MEL-28", "value": "> 100 µM (inactive)"},
      {"measurement": "GI50", "setting": "SK-MEL-2", "value": "32.7 µM (inactive)"},
      {"measurement": "GI50", "setting": "SK-MEL-5", "value": "14.2 µM (inactive)"},
      {"measurement": "GI50", "setting": "SK-OV-3", "value": "3.32 µM (inactive)"},
      {"measurement": "GI50", "setting": "SN12C", "value": "37.8 µM (inactive)"},
      {"measurement": "GI50", "setting": "SNB-19", "value": "54.1 µM (inactive)"},
      {"measurement": "GI50", "setting": "SNB-75", "value": "3.35 µM (inactive)"},
      {"measurement": "GI50", "setting": "SNB-78", "value": "41.1 µM (inactive)"},
      {"measurement": "GI50", "setting": "SR", "value": "17.6 µM (inactive)"},
      {"measurement": "GI50", "setting": "SW-620", "value": "74.8 µM (inactive)"},
      {"measurement": "GI50", "setting": "TK-10", "value": "62.7 µM (inactive)"},
      {"measurement": "GI50", "setting": "U-251", "value": "42.4 µM (inactive)"},
      {"measurement": "GI50", "setting": "UACC-257", "value": "24.1 µM (inactive)"},
      {"measurement": "GI50", "setting": "UACC-62", "value": "34.5 µM (inactive)"},
      {"measurement": "GI50", "setting": "UO-31", "value": "7.38 µM (inactive)"}
    ]}
  ]
}
